From ChEMBL document CHEMBL1132595, “Acquisition of high-affinity, SH2-targeted ligands via a spatially focused library” (J Med Chem, 1999) come the findings set out here.

For assay [1], the target named is Tyrosine-protein kinase Lck (Homo sapiens, UniProt P06239). The assay can be described thus: Dissociation constant for binding to SH2 domain of p56 lck tyrosine kinase.
The nature of assay [2]: Dissociation constant for binding to SH2 domain of Phosphatidylinositol 3-kinase p85 subunit.
Assay [3] can be described thus: Dissociation constant for binding to SH2 domain of Phospholipase C gamma.
Assay [4] addresses Growth factor receptor-bound protein 2 (Homo sapiens, UniProt P62993). The assay can be described thus: Dissociation constant for binding to SH2 domain of Growth factor receptor bound protein 2, Grb2.
For assay [5], the target named is Tyrosine-protein kinase Fyn (Homo sapiens, UniProt P06241). The assay can be described thus: Dissociation constant for binding to SH2 domain of Fyn protein kinase.
Sequence of Tyrosine-protein kinase Fyn (P06241 whole entry, the tested form may be a part): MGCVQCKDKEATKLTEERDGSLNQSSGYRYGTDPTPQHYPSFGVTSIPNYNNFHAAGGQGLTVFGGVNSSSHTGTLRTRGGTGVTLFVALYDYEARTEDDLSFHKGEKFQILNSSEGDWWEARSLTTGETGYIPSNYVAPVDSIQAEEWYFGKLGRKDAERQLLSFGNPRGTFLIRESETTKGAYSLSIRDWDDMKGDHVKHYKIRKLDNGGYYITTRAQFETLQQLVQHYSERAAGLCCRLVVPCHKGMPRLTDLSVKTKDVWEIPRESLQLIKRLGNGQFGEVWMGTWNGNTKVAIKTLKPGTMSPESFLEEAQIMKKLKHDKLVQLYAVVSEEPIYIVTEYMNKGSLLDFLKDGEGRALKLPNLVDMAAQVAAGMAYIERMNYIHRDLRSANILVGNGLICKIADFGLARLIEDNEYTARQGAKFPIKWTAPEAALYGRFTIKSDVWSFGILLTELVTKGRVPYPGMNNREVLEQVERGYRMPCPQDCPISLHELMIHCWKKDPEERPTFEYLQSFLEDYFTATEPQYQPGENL

Molecules are shown by their SMILES.

Sequence of Tyrosine-protein kinase Lck (P06239 whole entry, the tested form may be a part): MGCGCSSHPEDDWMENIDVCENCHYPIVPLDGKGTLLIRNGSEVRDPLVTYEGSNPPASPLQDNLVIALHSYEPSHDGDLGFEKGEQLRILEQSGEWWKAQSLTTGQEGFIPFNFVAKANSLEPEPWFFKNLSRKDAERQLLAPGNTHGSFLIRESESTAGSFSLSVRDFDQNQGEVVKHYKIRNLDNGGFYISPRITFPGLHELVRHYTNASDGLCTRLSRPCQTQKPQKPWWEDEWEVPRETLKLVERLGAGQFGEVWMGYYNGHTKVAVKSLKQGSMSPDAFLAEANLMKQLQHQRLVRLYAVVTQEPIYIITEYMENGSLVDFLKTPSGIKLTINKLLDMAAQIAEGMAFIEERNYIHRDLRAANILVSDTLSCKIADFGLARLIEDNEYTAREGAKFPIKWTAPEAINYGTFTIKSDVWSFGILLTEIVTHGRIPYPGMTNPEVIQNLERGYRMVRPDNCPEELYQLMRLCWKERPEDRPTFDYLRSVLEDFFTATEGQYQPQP
Sequence of Growth factor receptor-bound protein 2 (P62993 whole entry, the tested form may be a part): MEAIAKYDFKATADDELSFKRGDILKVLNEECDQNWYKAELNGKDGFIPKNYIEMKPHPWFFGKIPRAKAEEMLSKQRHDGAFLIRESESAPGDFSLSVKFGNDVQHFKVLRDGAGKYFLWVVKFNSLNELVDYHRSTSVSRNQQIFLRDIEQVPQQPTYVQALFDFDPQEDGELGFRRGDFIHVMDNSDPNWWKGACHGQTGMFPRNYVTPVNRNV

With `O=C(O)Cc1cc(=O)oc2cc(O)ccc12`, the Kd worked out at 35 nM in assay [1]; 9300 nM in assay [2]; 4900 nM in assay [3]; 11300 nM in assay [4]; 150 nM in assay [5].

In the case of `O=C(O)c1ccsc1`, the equilibrium dissociation constant (Kd) was determined as 260 nM in assay [1] and 700 nM in assay [5].

With `O=C(O)c1cc(C(=O)O)cc(S(=O)(=O)O)c1`, the Kd in assay [1] was 220 nM; in assay [5], 60 nM.

The molecule `COc1ccc2c(CC(=O)O)cc(=O)oc2c1` gave a dissociation constant (Kd) in assay [1] of 2500 nM.

`COc1cc(Br)c(C(=O)O)cc1OC`: the Kd was 240 nM in assay [1] and 500 nM in assay [5].

In the case of `O=C(O)CNC(=O)c1ccc([N+](=O)[O-])cc1`, the figures for the Kd in assay [1] and in assay [5] were 290 nM and 240 nM, respectively.

Usually Kd stands for the free concentration of one partner at which half of the binding sites on the other are occupied at equilibrium, for simple one-to-one binding. A higher Kd goes with weaker binding.
